# Measurements as given in patent US11072588B2, “Barbituric acid derivatives comprising cationic and lipophilic groups” (UNIVERSITETET I TROMSØ—NORGES ARKTISKE UNIVERSITET, priority 2017, dated 2021).
# Where two headings read alike, the source gives them in different places.
# Tests used:
# [1] = Determination of haemolytic activity; type: cell-based; conditions: human red blood cells (washed, from heparinized fresh blood); human RBCs, 1 h, 37° C.; read-out: RBC: haemolytic activity against human RBCs (EC50)
# Method: Hemolysis was determined using a heparinized fraction (1000 IU/mL) of freshly drawn blood. Blood collected in EDTA containing test tubes (Vacutest®, KIMA, Arzergrande, Italy) was used for determination of the hematocrit (hct). The heparinized blood was washed 3× with pre-warmed PBS and adjusted to a final hct of 4%. Derivatives in DMSO (50 mM) were added to a 96-well polypropylene V-bottom plate (NUNC, Fisher Scientific, Oslo, Norway) and serially diluted. The test concentration range was 500-4 μM with DMSO contents ≤1%. A solution of 1% triton X-100 was used as positive control for 100% hemolysis. As negative control a solution of 1% DMSO in PBS buffer was included. No signs of DMSO toxicity were detected. RBCs (1% v/v final concentration) were added to the well plate and incubated at 37° C. and 800 rpm for 1 h. After centrifugation (5 min, 3000 g), 100 μL of each well were transferred to a 96-well flat bottom plate and absorbance was measured at 545 nm with a microplate reader (VersaMax™, Molecular Devices, Sunnyvale, Calif., USA). The percentage of hemolysis was calculated as the ratio of the absorbance in the derivative-treated and surfactant treated samples, corrected for the PBS background. Three independent experiments were performed and EC50 values are presented as averages.
# E. faecium 50673722 = test: MIC, multi-resistant clinical isolate; type: cell-based, Enterococcus faecium; conditions: for MIC: Enterococcus faecium, read-out: Antimicrobial activity (MIC); for selectivity index (EC50/MIC): RBC EC50 / MIC
# Method: (§1) Working solutions of the test derivatives were prepared with up to 100% DMSO and stored at −20° C. If necessary, the solutions were heated to 40-80° C. before testing to facilitate complete dissolution. Double-distilled water was used in all dilutions prepared. […] A microdilution susceptibility test was used for MIC determination according to Clinical and Laboratory Standards Institute, “Methods for Dilution Antimicrobial Sisceptibility Tests for Bacteria That Graw Aerobically”, Approved Standard M07-A9, edition 2012, with modifications as described by Igumnova et al (Bioorg Med Chem, 2016, 24 (22), 5884-5894).
# (§2) Briefly, the bacterial inoculum was adjusted to approximately 2.5-3×10^4 cells/mL in Mueller-Hinton broth (MHB, Difco Laboratories, USA), and incubated in a ratio of 1:1 with test derivatives in polystyrene 96-well flat-bottom microplates (NUNC, Roskilde, Denmark). Positive growth control (without test derivatives) and negative control (without bacteria) were included. The reference antibiotic was oxytetracycline hydrochloride (Sigma Aldrich, Saint Louis, Mo., USA). The microplates were incubated in an EnVision microplate reader (Perkin-Elmer, Turku, Finland) placed in an incubator set to 35° C. for 48 h. The MIC value was defined as the lowest concentration of derivative resulting in no bacterial growth as determined by OD600 measurement. All derivatives were tested in three parallels.
# (§3) The MIC was determined as explained above with some exceptions; working solutions of test derivatives were prepared from concentrated DMSO stocks stored at room temperature, the density of the bacterial inoculum was increased 40× to 1-1.2×10^6 cells/mL, enterococci were incubated in Brain Heart Infusion broth (BHIB, Difco Laboratories, USA), the microplates were incubated for 24 h, and the derivatives were tested in four parallels.
# E. faecium 50758899 = test: MIC, multi-resistant clinical isolate; type: cell-based, Enterococcus faecium; conditions: for MIC: Enterococcus faecium, read-out: Antimicrobial activity (MIC); for selectivity index (EC50/MIC): RBC EC50 / MIC
# Method: as §1, §2, §3
# E. faecium 50901530 = test: MIC, multi-resistant clinical isolate; type: cell-based, Enterococcus faecium; conditions: for MIC: Enterococcus faecium, read-out: Antimicrobial activity (MIC); for selectivity index (EC50/MIC): RBC EC50 / MIC
# Method: as §1, §2, §3
# E. faecium K36-18 = test: MIC, multi-resistant clinical isolate; type: cell-based, Enterococcus faecium; conditions: for MIC: Enterococcus faecium, K3618, read-out: Antimicrobial activity (MIC); for selectivity index (EC50/MIC): RBC EC50 / MIC, E. faecium K36-18
# Method: as §1, §2, §3
# E. faecium TUH50-22 = test: MIC, multi-resistant clinical isolate; type: cell-based, Enterococcus faecium; conditions: for MIC: Enterococcus faecium, TUH5022, read-out: Antimicrobial activity (MIC); for selectivity index (EC50/MIC): RBC EC50 / MIC
# Method: as §1, §2, §3
# K. pneumoniae K47-25 = test: MIC, multi-resistant clinical isolate; type: cell-based, Klebsiella pneumoniae; conditions: K. pneumoniae K47-25, resistant to colistin; for MIC: Klebsiella pneumoniae, K4725, 24 h, read-out: Antimicrobial activity (MIC); for selectivity index (EC50/MIC): RBC EC50 / MIC
# A. baumanii K12-21 = test: MIC, multi-resistant clinical isolate; type: cell-based, Acinetobacter baumannii; conditions: for MIC: Acinetobacter baumannii, K1221, read-out: Antimicrobial activity (MIC); for selectivity index (EC50/MIC): RBC EC50 / MIC
# Method: as §1, §2, §3
# A. baumanii K44-35 = test: MIC, multi-resistant clinical isolate; type: cell-based, Acinetobacter baumannii; conditions: for MIC: Acinetobacter baumannii, K4435, read-out: Antimicrobial activity (MIC); for selectivity index (EC50/MIC): RBC EC50 / MIC
# Method: as §1, §2, §3
# A. baumanii K47-42 = test: MIC, multi-resistant clinical isolate; type: cell-based, Acinetobacter baumannii; conditions: for MIC: Acinetobacter baumannii, K4742, read-out: Antimicrobial activity (MIC); for selectivity index (EC50/MIC): RBC EC50 / MIC
# Method: as §1, §2, §3
# A. baumanii K55-13 = test: MIC, multi-resistant clinical isolate; type: cell-based, Acinetobacter baumannii; conditions: for MIC: Acinetobacter baumannii, K5513, read-out: Antimicrobial activity (MIC); for selectivity index (EC50/MIC): RBC EC50 / MIC
# Method: as §1, §2, §3
# A. baumanii K63-58 = test: MIC, multi-resistant clinical isolate; type: cell-based, Acinetobacter baumannii; conditions: A. baumanii K63-58, resistant to colistin; for MIC: Acinetobacter baumannii, K6358, 24 h, read-out: Antimicrobial activity (MIC); for selectivity index (EC50/MIC): RBC EC50 / MIC
# Method: as §1, §2, §3
# [2] = test system: human metastatic melanoma (A2058, ATCC CRL-11147) cells; test: Anti-cancer activity against A2058 cells; type: cell-based; conditions: A2058, read-out: Anti-cancer IC50
# Summary of the method: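 A2058 melanoma cells seeded at 2,000/well overnight, then exposed to a concentration range in serum-free MEM (gentamycin, NEAA, pyruvate, glutamine) for 24 h (cytotoxicity stated as after 72 h exposure). MTS-type tetrazolium reagent added for 1 h; absorbance at 485 nm; % survival versus medium and Triton X-100 controls.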
# [3] = test system: panel of 30 multi-resistant clinical isolates of Gram-positive and Gram-negative bacteria; test: MIC screening, ranges over the panel of clinical isolates; type: cell-based
# Method: as §1, §2, §3
Compound,EC50 at 1 h [1] [µg/mL],MIC (E. faecium 50673722) [µg/mL],selectivity index (EC50/MIC) (E. faecium 50673722),MIC (E. faecium 50758899) [µg/mL],selectivity index (EC50/MIC) (E. faecium 50758899),MIC (E. faecium 50901530) [µg/mL],selectivity index (EC50/MIC) (E. faecium 50901530),MIC (E. faecium K36-18) [µg/mL],selectivity index (EC50/MIC) (E. faecium K36-18),MIC (E. faecium TUH50-22) [µg/mL],selectivity index (EC50/MIC) (E. faecium TUH50-22),MIC (K. pneumoniae K47-25) [µg/mL],selectivity index (EC50/MIC) (K. pneumoniae K47-25),MIC (A. baumanii K12-21) [µg/mL],selectivity index (EC50/MIC) (A. baumanii K12-21),MIC (A. baumanii K44-35) [µg/mL],selectivity index (EC50/MIC) (A. baumanii K44-35),MIC (A. baumanii K47-42) [µg/mL],selectivity index (EC50/MIC) (A. baumanii K47-42),MIC (A. baumanii K55-13) [µg/mL],also measured
"N=C(N)NCCCCN1C(=O)N(CCCCNC(=N)N)C(=O)C(Cc2ccc3ccccc3c2)(Cc2ccc3ccccc3c2)C1=O [8(iv), 1,1′-(4,4′-(5,5-bis(naphthalen-2-ylmethyl)-2,4,6-trioxodihydropyrimidine-1,3(2H,4H)-diyl)bis(butane-4,1-diyl))-diguanidine]",133,16,(8),16,(8),8,(17),16,(8),8,(17),16,(8),32,(4),32,(4),32,(4),32,"selectivity index (EC50/MIC) (A. baumanii K55-13): (4); MIC (A. baumanii K63-58): 32 µg/mL; selectivity index (EC50/MIC) (A. baumanii K63-58): (4); IC50 [2]: 8 µg/mL; MIC ([3]; Enterococcus faecium, read-out: MIC values against the Gram-positive isolates of S. aurues and E. faecium): 8 to 16 µg/mL"
"N=C(N)NCCCCN1C(=O)N(CCCCNC(=N)N)C(=O)C(Cc2ccc(F)c3ccccc23)(Cc2ccc(F)c3ccccc23)C1=O [8(v), 1,1′-(4,4′-(5,5-bis((4-fluoronaphthalen-1-yl)methyl)-2,4,6-trioxodihydropyrimidine-1,3(2H,4H)-diyl)bis(butane-4,1-diyl))diguanidine]",88,4,(22),4,(22),4,(22),4,(22),4,(22),8,(11),8,(11),8,(11),8,(11),8,selectivity index (EC50/MIC) (A. baumanii K55-13): (11); MIC (A. baumanii K63-58): 8 µg/mL; selectivity index (EC50/MIC) (A. baumanii K63-58): (11); IC50 [2]: 8 µg/mL; MIC ([3]; read-out: MIC values against all the 30 multi-resistant clinical isolates): 2 to 16 µg/mL
"CC(C)(C)c1ccc(CC2(Cc3ccc(C(C)(C)C)cc3)C(=O)N(CCCCNC(=N)N)C(=O)N(CCCCNC(=N)N)C2=O)cc1 [Compound 8(i), 1,1′-(4,4′-(5,5-bis(4-tert-butylbenzyl)-2,4,6-trioxodihydropyrimidine-1,3(2H,4H)-diyl)bis(butane-4,1-diyl))diguanidine]",77,2,(39),2,(39),4,(19),2,(39),2,(39),4,(19),4,(19),8,(10),8,(10),8,"selectivity index (EC50/MIC) (A. baumanii K55-13): (10); MIC (A. baumanii K63-58): 4 µg/mL; selectivity index (EC50/MIC) (A. baumanii K63-58): (19); IC50 [2]: 2 µg/mL; MIC ([3]; Pseudomonas aeruginosa, read-out: MIC against P. aeruginosa): 8 to 16 µg/mL; fold improvement in antimicrobial activity compared to the analogous amine barbiturate 7(i) ([3]; multi-resistant clinical isolates): up to 4 fold; MIC ([3]; read-out: MIC values against S. aurues, E. faecium and E. coli): 2 to 4 µg/mL; MIC ([3]; read-out: MIC values against the Gram-negative multi-resistant clinical isolates of K. pneumoniae and A. baumanii): 4 to 8 µg/mL"
